Assay results from patent publication US20190029252A1, “Use of Herbicide-tolerant Protein” (BEIJING DABEINONG TECHNOLOGY GROUP CO., LTD., priority 2016, published 2019).

How the values were obtained:
Format in all cases: in vivo
[1] = test system: wild-type Arabidopsis thaliana plants; experiment: Herbicide tolerance of Arabidopsis thaliana plants, sprayed, resistance classes counted 14 days after spraying
Text: T1 transformants were initially selected from the background of untransformed seeds using a glufosinate selection scheme. About 40000 T1 seeds were screened, and 380 T1 positive transformants (PAT gene) were identified with a transformation efficiency of about 0.95%. The plants that were transformed with the recombinant expression vector DBN100632 were Arabidopsis thaliana plants having an ALT-1-01 nucleotide sequence located in the cytoplasm introduced (At cytoplasmic ALT-1-01), and the plants that were transformed with the recombinant expression vector DBN100631 were Arabidopsis thaliana plants having an ALT-1-01 nucleotide sequence located in the chloroplast introduced (At chloroplastic ALT-1-01); the plants that were transformed with the recombinant expression vector DBN100634 were Arabidopsis thaliana plants having an ALT-2-01 nucleotide sequence located in the cytoplasm introduced (At cytoplasmic ALT-2-01), and the plants that were transformed with the recombinant expression vector DBN100633 were Arabidopsis thaliana plants having an ALT-2-01 nucleotide sequence located in the chloroplast introduced (At chloroplastic ALT-2-01); and the plants that were transformed with the recombinant expression vector DBN100636 were Arabidopsis thaliana plants having an ALT-3-01 nucleotide sequence located in the cytoplasm introduced (At cytoplasmic ALT-3-01), and the plants that were transformed with the recombinant expression vector DBN100635 were Arabidopsis thaliana plants having an ALT-3-01 nucleotide sequence located in the chloroplast introduced (At chloroplastic ALT-3-01).
(§1) Plants were counted for the resistance situations 14 days after spraying: those having a consistent growth status with the blank solvent (water) group after 14 days were classified as highly resistant plants, those having a bolting height less than ½ of that of the blank solvent (water) group after 14 days were classified as moderately resistant plants, those still not capable of bolting after 14 days were classified as poorly resistant plants, and those dead after 14 days were classified as non-resistant plants. Since each Arabidopsis thaliana T1 plant was an independent transformation event, a significant difference in individual T1 responses could be expected at a given dose.
as §1, with “situation” for “situations”

[2] = test system: Zm cytoplasmic ALT-1-02 maize plants; experiment: Tribenuron-methyl tolerance of maize plants, damage degree after spraying; settings: 72 g ai/ha (4-fold field concentration)
Method: (§2) The damage degree caused by the herbicide was measured for each plant according to the plant growth status 3 days after spraying (3 DAT), 7 days after spraying (7 DAT), 14 days after spraying (14 DAT) and 21 days after spraying (21 DAT), respectively: considering a growth status equivalent to that of the untreated plants as having a damage degree of 0%; considering conditions of leaves being partially chlorotic and yellow but substantially not affecting the plant normal growth as having a damage degree of 50%; and considering the whole plant being purple and dying as having a damage degree of 100%. There were 2 strains in Zm cytoplasmic ALT-1-02 maize plants in total (S13 and S14), 2 strains in Zm chloroplastic ALT-1-02 maize plants in total (S15 and S16), 2 strains in Zm cytoplasmic ALT-2-02 maize plants in total (S17 and S18), 2 strains in Zm chloroplastic ALT-2-02 maize plants in total (S19 and S20), 2 strains in Zm cytoplasmic ALT-3-02 maize plants in total (S21 and S22), 2 strains in Zm chloroplastic ALT-3-02 maize plants in total (S23 and S24), and 1 strain in wild-type maize plants (CK2) in total; and 10-15 plants were selected from each strain and tested.

[3] = test system: Zm cytoplasmic ALT-2-02 maize plants; experiment: as above; settings: 72 g ai/ha (4-fold field concentration)
Method: as §2

[4] = test system: wild-type maize plants (CK2); experiment: as above
Method: as §2

[5] = test system: transformed Arabidopsis thaliana T1 plants (ALT-1, ALT-2 and ALT-3); experiment: Herbicide tolerance of transgenic Arabidopsis thaliana T1 plants, overall conclusion; settings: transgenic Arabidopsis thaliana T1 plants; 18 g ai/ha
Text: as §1
as §1, with “situation” for “situations”

[6] = test system: transgenic maize plants (ALT-1, ALT-2 and ALT-3); experiment: Tribenuron-methyl tolerance of transgenic maize plants, overall conclusion; settings: 72 g ai/ha
Method: as §2

[7] = wild-type, sprayed at 1-fold field concentration, 14 days after spraying
[8] = maize strain S13 (Zm cytoplasmic ALT-1-02)
[9] = maize strain S14 (Zm cytoplasmic ALT-1-02)
[10] = maize strain S17 (Zm cytoplasmic ALT-2-02)
[11] = maize strain S18 (Zm cytoplasmic ALT-2-02)
[12] = maize strain CK2 (wild-type), 72 g ai/ha (4-fold field concentration)

COC(=O)c1ccccc1S(=O)(=O)NC(=O)N(C)c1nc(C)nc(OC)n1 [tribenuron-methyl, methyl 2-[N-(4-methoxy-6-methyl-1,3,5-triazin-2-yl)-N-methylaminoformamidosulfonyl]benzoate]
herbicide tolerance (in words) ([1]; wild-type Arabidopsis thaliana plants, 18 g ai/ha): none of the wild-type Arabidopsis thaliana plants was tolerant | Highly resistant (number of plants) [1, 7]: 0 | Moderately resistant (number of plants) [1, 7]: 0 | Non-resistant (number of plants) [1, 7]: 32 | Poorly resistant (number of plants) [1, 7]: 0 | Average damage % 3DAT [2, 8]: 4% | Average damage % 7DAT [2, 8]: 0% | Average damage % 14DAT [2, 8]: 0% | Average damage % 21DAT [2, 8]: 0% | Average damage % 3DAT [2, 9]: 5% | Average damage % 7DAT [2, 9]: 0% | Average damage % 14DAT [2, 9]: 0% | Average damage % 21DAT [2, 9]: 0% | Average damage % 3DAT [3, 10]: 6% | Average damage % 7DAT [3, 10]: 0% | Average damage % 14DAT [3, 10]: 0% | Average damage % 21DAT [3, 10]: 0% | Average damage % 3DAT [3, 11]: 5% | Average damage % 7DAT [3, 11]: 0% | Average damage % 14DAT [3, 11]: 0% | Average damage % 21DAT [3, 11]: 0% | Average damage % 7DAT [4, 12]: 86% | Average damage % 14DAT [4, 12]: 100% | Average damage % 21DAT [4, 12]: 100% | herbicide tolerance (in words) ([4]; wild-type maize plants, 72 g ai/ha): not tolerant | herbicide tolerance conferred by thifensulfuron hydrolase (in words) [5]: conferred tribenuron-methyl herbicide tolerance | herbicide tolerance conferred by thifensulfuron hydrolase (in words) [6]: a high level of tribenuron-methyl herbicide tolerance
